Data taken from patent EP0647136B1, “USE OF CONDENSED BIS-(3,4-DIHYDRO-PYRIDINYL)METHANE FOR TREATING CROHN'S DISEASE, COLITIS ULCEROSA, CHRONIC INFLAMATORY PROCESSES AND AS AN ANTIPROLIFERATIVE” (BOEHRINGER INGELHEIM INTERNATIONAL GmbH, priority 1992, dated 1994).

Tested on: RBL-2H3-Zellen
Test: Antigen-induced (DNP-BSA) activation of sensitised RBL-2H3 cells, fluorometric cytoplasmic Ca2+ measurement
Assay type: cell-based, rat
Settings: 10 µM
Source text: Verwendet werden einzelne an Glasplättchen adhärente RBL-2H3-Zellen (eine den Mastzellen verwandte Tumorzellinie).
Die Kultivierung und Anhaftung der RBL-2H3-Zellen erfolgt in der HIDE und BEAVEN (1991) beschriebenen Methode. Zur Sensibilisierung der adhäsiven RBL-2H3-Zellen werden die Zellen 2 Stunden bei Raumtemperatur mit einer 1:2000 verdünnten käuflichen Gammaglobulin E-Lösung gegen einen Dinitrophenol-Rinderserumalbumin-Komplex (DNP-BSA-Antigen) inkubiert. Anschließend werden die Zellen gewaschen. Durch Zusatz von 0,1 ml DNP-BSA-Lösung (10 µg/ml) erfolgt eine massive immunologische Zellaktivierung, die durch einen cytoplasmatischen Ca^2+-overload vermittelt wird. Die fluorometrische Calciummessung im Cytoplasma einzelner adhärenter RBL-2H3-Zellen erfolgt in Analogie zu der von KUDO und OGURA (1986) für neuronale Zellen beschriebenen Methode, die auch weiter oben in dieser Beschreibung erläutert wird.

SMILES: O=C(O)c1cc(=O)c2c(OCC(O)COc3cccc4oc(C(=O)O)cc(=O)c34)cccc2o1 [Chromoglycat]
- Hemmung der antigen-induzierten Zellaktivierung: ca. 50%
